# Source: US20220264878A1, “HERBICIDAL COMPOSITION CONTAINING R-TYPE PYRIDYLOXY CARBOXYLIC ACID DERIVATIVE AND USE THEREOF” (Qingdao Kingagroot Chemical Compound Co., Ltd., priority 2019, published 2022)
# Where two headings read alike, the source gives them in different places.
# Experiments:
# Type in all cases: in vivo
# Digitaria sanguinalis = assay: Post-emergence foliage spray, pot culture, fresh weight inhibition (Tables 151-206; 20 days); settings: Digitaria sanguinalis, 480 h, read-out: Control effect (%) of A applied alone in corresponding dose
# Description: Table 151-206: Digitaria sanguinalis, Amaranthus retroflexus, Conyza Canadensis, Capsella bursa-pastoris, Eleusine indica were collected in Huangdao of Shandong Province, Sinapis arvensis were collected in Sixian of Anhui Province, Alopecurus japonicus were collected in Tianchang of Anhui Province, Veronica didyma were collected in Siyang of Jiangsu Province.
# (§1) The above weeds were cultivated by a pot culture method. […] Full and uniform weed seeds were selected, soaked in warm water at 25° C. for 6 hours, and germinated in a 28° C. biochemical incubator (darkness). The weed seeds that had just germinatedwere evenly placed on the surface of the soil and then covered with 0.5-1 cm soil according to the sizes of seeds.
# The culture was carried out in a controllable sunlight greenhouse at 20 to 30° C., in natural light, and relative humidity of 57% to 72%.
# (§2) The technical materials were all dissolved in acetone, and diluted with an aqueous solution containing 0.1% emulsifier Tween-80. The dilution is performed as required.
# (§3) A ratio of the active ingredient A to the active ingredient B and amounts thereof in each group depends on the characteristics and toxicity of the two agents, as well as the main application purpose of a corresponding formulation. Based on the pre-tests in this study, the dosage of the active ingredient A and B applied alone and in combination were shown in the tables. Water containing the solvent and emulsifier same with the above groups but free of the agents was used as a blank control.
# Table 1-48, 51-98, 101-148, 151-206: […] per treatment, that is, a total of 60 weeds were treated in one treatment.
# Table 151-206: The agents were used for only once in the experiment. In the stage of weeds with 3˜4 leaves, the weeds were thinned out to maintain 15 weeds per pot and 45 weeds for each treatment, then continued to be cultured to 4˜5 leaves stage of grassy weeds, 5˜6 leaves stage of broadleaf weeds, and treated.
# (§4) The well-cultured weeds were evenly placed on a platform with an area of 0.5 m^2, and a solution of agents was sprayed on the stems and leaves thereof by the 3WP-2000-type walking spray tower at a dosage of 450 kg/ha and at a spray pressure of 0.3 MPa. After all the solution was sprayed, the valve was closed. After 30 seconds, the door of the spray tower was opened, and the nutritional bowl was taken out. Then the valve was opened, and the spray tube was cleaned by spraying 50 ml of water.
# (§5) A pot-culture method was employed. For the cultivation of weeds, please refer to the Section 1.1), and “Pesticide guidelines for laboratory bioactivity tests—herbicides”. As to a method for applying agents, please refer to the section 2.3.2), that is, a foliage treatment was employed. After the treatment, the weeds were routinely cultured in a greenhouse.
# (§6) A method for investigating absolute number was employed, wherein whole seedlings of survival weeds were cut off with a blade along the soil surface, and the fresh weight of the weeds was weighed with an analytical balance. For dead weeds, the fresh weight thereof was zero.
# Table 151-206: The investigation was performed after 20 days of the treatment for only once.
# Theoretical fresh weight inhibition rate of a combination of two active ingredients in each group was calculated by the Gowing method (E0=X+Y−X*Y/100), and then compared with an actually measured inhibition rate (E), thereby effect of the combination (hereafter referred to as combined effect) on weeds was evaluated: the value of E-E0, which was greater than 10%, corresponded to a synergistic effect, the value of E-E0, which was less than −10%, corresponded to an antagonistic effect, and the value of E-E0, which was from −10% to 10%, corresponded to an additional effect.
# Capsella bursa-pastoris = assay: as above; settings: Capsella bursa-pastoris, 480 h, read-out: Control effect (%) of A applied alone in corresponding dose
# Description: as §1, §2, §3
# In the stage of weeds with 3˜4 leaves, the weeds were thinned out to maintain 15 weeds per pot and 45 weeds for each treatment, then continued to be cultured to 4˜5 leaves stage of grassy weeds, 5˜6 leaves stage of broadleaf weeds, and treated.
# as §4, §5, §6
# (§7) Wherein, in the formula, X represented the fresh weight inhibition rate of the active ingredient A in a dosage of P, and Y represented the fresh weight inhibition rate of the active ingredient B in a dosage of Q.
# Echinochloa caudate = assay: Post-emergence foliage spray, pot culture, fresh weight inhibition (Tables 1-48, 51-98, 101-148; 24 days)
# Description: as §1, §2, §3
# (§8) In the stage of weeds with 3˜4 leaves, the weeds were thinned out to maintain 15 weeds per pot and 45 weeds for each treatment, then continued to be cultured to 5˜6 leaves stage of grassy weeds, 6˜7 leaves stage of broadleaf weeds, and treated.
# as §4, §5, §6, §7
# [1] = test system: Echinochloa crusgalli var. zelayensis; assay: as above; settings: Echinochloa crus-galli, foliar, 576 h, foliage spray, 24 days, read-out: Control effect (%) of B applied alone in corresponding dose
# Description: as §1, §2, §3, §8, §4, §5, §6, §7
# Echinochloa oryzoides = assay: as above
# Description: as §1, §2, §3, §8, §4, §5, §6, §7
# [2] = A alone 75 g a.i./ha, 20 days after treatment
# [3] = A alone 150 g a.i./ha, 20 days after treatment
compound,measurement,setting,value
CCCCCCCCCCCOC(=O)[C@@H](C)Oc1nc(F)c(Cl)c(N)c1Cl [Compound A94],pest or weed control at 75 g/ha,"Digitaria sanguinalis; A 75 g a.i./ha, 20 days",23.4%
same,pest or weed control at 150 g/ha,"Digitaria sanguinalis; A 150 g a.i./ha, 20 days",51.7%
same,pest or weed control at 75 g/ha,"Capsella bursa-pastoris; A 75 g a.i./ha, 20 days",6.2%
same,pest or weed control at 150 g/ha,"Capsella bursa-pastoris; A 150 g a.i./ha, 20 days",12.6%
CC(C)=NOC(=O)[C@@H](C)Oc1nc(F)c(Cl)c(N)c1Cl [Compound A130],pest or weed control at 75 g/ha,Digitaria sanguinalis; [2],16.7%
same,pest or weed control at 150 g/ha,Digitaria sanguinalis; [3],36.8%
same,pest or weed control at 75 g/ha,Capsella bursa-pastoris; [2],5.4%
same,pest or weed control at 150 g/ha,Capsella bursa-pastoris; [3],13.2%
C[C@@H](Oc1nc(F)c(Cl)c(N)c1Cl)C(=O)OCc1ccccc1 [Compound A141],pest or weed control at 75 g/ha,"Digitaria sanguinalis; A 75 g a.i./ha, 20 days",27.7%
same,pest or weed control at 150 g/ha,"Digitaria sanguinalis; A 150 g a.i./ha, 20 days",55.8%
same,pest or weed control at 75 g/ha,"Capsella bursa-pastoris; A 75 g a.i./ha, 20 days",7.8%
same,pest or weed control at 150 g/ha,"Capsella bursa-pastoris; A 150 g a.i./ha, 20 days",16.4%
COC(=O)[C@H](Oc1nc(F)c(Cl)c(N)c1Cl)c1ccccc1 [Compound A171],pest or weed control at 75 g/ha,"Digitaria sanguinalis; A 75 g a.i./ha, 20 days",19.2%
same,pest or weed control at 150 g/ha,"Digitaria sanguinalis; A 150 g a.i./ha, 20 days",31.9%
same,pest or weed control at 75 g/ha,"Capsella bursa-pastoris; A 75 g a.i./ha, 20 days",12.2%
same,pest or weed control at 150 g/ha,"Capsella bursa-pastoris; A 150 g a.i./ha, 20 days",28.9%
CC[C@@H](Oc1nc(F)c(Cl)c(N)c1Cl)C(=O)OC [Compound A172],pest or weed control at 75 g/ha,"Digitaria sanguinalis; A 75 g a.i./ha, 20 days",21.2%
same,pest or weed control at 150 g/ha,"Digitaria sanguinalis; A 150 g a.i./ha, 20 days",38.9%
same,pest or weed control at 75 g/ha,"Capsella bursa-pastoris; A 75 g a.i./ha, 20 days",22.4%
same,pest or weed control at 150 g/ha,"Capsella bursa-pastoris; A 150 g a.i./ha, 20 days",47.9%
COC(=O)[C@@H](C)Oc1ncc(Cl)c(N)c1Cl [Compound A173],pest or weed control at 75 g/ha,"Digitaria sanguinalis; A 75 g a.i./ha, 20 days",38.2%
same,pest or weed control at 150 g/ha,"Digitaria sanguinalis; A 150 g a.i./ha, 20 days",73.6%
same,pest or weed control at 75 g/ha,"Capsella bursa-pastoris; A 75 g a.i./ha, 20 days",24.8%
same,pest or weed control at 150 g/ha,"Capsella bursa-pastoris; A 150 g a.i./ha, 20 days",52.4%
C[C@@H](Oc1nc(F)c(Cl)c(N)c1Cl)C(=O)SCc1ccco1 [Compound A211],pest or weed control at 75 g/ha,"Digitaria sanguinalis; A 75 g a.i./ha, 20 days",31.3%
same,pest or weed control at 150 g/ha,"Digitaria sanguinalis; A 150 g a.i./ha, 20 days",68.3%
same,pest or weed control at 75 g/ha,"Capsella bursa-pastoris; A 75 g a.i./ha, 20 days",5.8%
same,pest or weed control at 150 g/ha,"Capsella bursa-pastoris; A 150 g a.i./ha, 20 days",14.6%
C[C@@H](Oc1ncc(Br)c(N)c1Br)C(=O)O [Compound A212],pest or weed control at 75 g/ha,"Digitaria sanguinalis; A 75 g a.i./ha, 20 days",11.5%
same,pest or weed control at 150 g/ha,"Digitaria sanguinalis; A 150 g a.i./ha, 20 days",24.6%
same,pest or weed control at 75 g/ha,"Capsella bursa-pastoris; A 75 g a.i./ha, 20 days",8.6%
same,pest or weed control at 150 g/ha,"Capsella bursa-pastoris; A 150 g a.i./ha, 20 days",14.5%
Cc1c(F)c(F)c(COC(=O)[C@@H](C)Oc2nc(F)c(Cl)c(N)c2Cl)c(F)c1F [Compound A213],pest or weed control at 75 g/ha,Digitaria sanguinalis; [2],14.9%
same,pest or weed control at 150 g/ha,Digitaria sanguinalis; [3],31.2%
same,pest or weed control at 75 g/ha,Capsella bursa-pastoris; [2],14.6%
same,pest or weed control at 150 g/ha,Capsella bursa-pastoris; [3],26.8%
CCCCOCCOC(=O)[C@@H](C)Oc1nc(F)c(Cl)c(N)c1Cl [Compound A214],pest or weed control at 75 g/ha,Digitaria sanguinalis; [2],21.9%
same,pest or weed control at 150 g/ha,Digitaria sanguinalis; [3],44.6%
same,pest or weed control at 75 g/ha,Capsella bursa-pastoris; [2],24.8%
same,pest or weed control at 150 g/ha,Capsella bursa-pastoris; [3],46.2%
COc1cc(OC)nc(Oc2cccc(Oc3nc(OC)cc(OC)n3)c2C(=O)O)n1 [bispyribac-sodium],pest or weed control at 1.875 g/ha,"Echinochloa caudate; Echinochloa, 576 h, bispyribac-sodium 1.875 g a.i./ha, read-out: Control effect (%) of B applied alone in corresponding dose",5.5%
same,pest or weed control at 3.75 g/ha,"Echinochloa caudate; Echinochloa, 576 h, bispyribac-sodium 3.75 g a.i./ha, read-out: Control effect (%) of B applied alone in corresponding dose",16%
same,pest or weed control at 7.5 g/ha,"Echinochloa caudate; Echinochloa, 576 h, bispyribac-sodium 7.5 g a.i./ha, read-out: Control effect (%) of B applied alone in corresponding dose",44.9%
same,pest or weed control at 15 g/ha,"Echinochloa caudate; Echinochloa, 576 h, bispyribac-sodium 15 g a.i./ha, read-out: Control effect (%) of B applied alone in corresponding dose",62.1%
same,pest or weed control at 1.875 g/ha,[1]; B 1.875 g a.i./ha,5.3%
same,pest or weed control at 3.75 g/ha,[1]; B 3.75 g a.i./ha,17.4%
same,pest or weed control at 7.5 g/ha,[1]; B 7.5 g a.i./ha,43.4%
same,pest or weed control at 15 g/ha,[1]; B 15 g a.i./ha,62.9%
same,pest or weed control at 1.875 g/ha,"Echinochloa oryzoides; Echinochloa oryzoides, 576 h, Table 102, 1.875 g a.i./ha, read-out: Control effect (%) of B applied alone in corresponding dose",4.7%
same,pest or weed control at 3.75 g/ha,"Echinochloa oryzoides; Echinochloa oryzoides, 576 h, Table 102, 3.75 g a.i./ha, read-out: Control effect (%) of B applied alone in corresponding dose",18.2%
same,pest or weed control at 7.5 g/ha,"Echinochloa oryzoides; Echinochloa oryzoides, 576 h, Table 102, 7.5 g a.i./ha, read-out: Control effect (%) of B applied alone in corresponding dose",44.1%
same,pest or weed control at 15 g/ha,"Echinochloa oryzoides; Echinochloa oryzoides, 576 h, Table 102, 15 g a.i./ha, read-out: Control effect (%) of B applied alone in corresponding dose",62%
CS(=O)(=O)c1ccc(C(=O)C2C(=O)CCCC2=O)c(Cl)c1COCC1CCCO1 (centres unmarked) [tefuryltrione],Control effect (%) of B applied alone in corresponding dose,"Echinochloa caudate; Table 81, 7.5 g a.i./ha",6.8%
same,Control effect (%) of B applied alone in corresponding dose,"Echinochloa caudate; Table 81, 15 g a.i./ha",13.1%
same,Control effect (%) of B applied alone in corresponding dose,"Echinochloa caudate; Table 81, 30 g a.i./ha",41.3%
same,Control effect (%) of B applied alone in corresponding dose,"Echinochloa caudate; Table 81, 60 g a.i./ha",65.4%
same,Control effect (%) of B applied alone in corresponding dose,Echinochloa oryzoides; B 7.5 g a.i./ha,8.9%
same,Control effect (%) of B applied alone in corresponding dose,Echinochloa oryzoides; B 15 g a.i./ha,18.8%
same,Control effect (%) of B applied alone in corresponding dose,Echinochloa oryzoides; B 30 g a.i./ha,46.1%
same,Control effect (%) of B applied alone in corresponding dose,Echinochloa oryzoides; B 60 g a.i./ha,69.3%
Cc1cc(C)n(Cc2c(S(C)(=O)=O)ccc(C(=O)c3c(C)nn(C)c3OC(=O)c3cn(C)nc3C)c2Cl)n1 [tripyrasulfone],Control effect (%) of B applied alone in corresponding dose,"Echinochloa caudate; Table 80, 18.75 g a.i./ha",4.6%
same,Control effect (%) of B applied alone in corresponding dose,"Echinochloa caudate; Table 80, 37.5 g a.i./ha",16.0%
same,Control effect (%) of B applied alone in corresponding dose,"Echinochloa caudate; Table 80, 75 g a.i./ha",42.6%
same,Control effect (%) of B applied alone in corresponding dose,"Echinochloa caudate; Table 80, 150 g a.i./ha",74.3%
same,Control effect (%) of B applied alone in corresponding dose,Echinochloa oryzoides; B 18.75 g a.i./ha,8.9%
same,Control effect (%) of B applied alone in corresponding dose,Echinochloa oryzoides; B 37.5 g a.i./ha,18.0%
same,Control effect (%) of B applied alone in corresponding dose,Echinochloa oryzoides; B 75 g a.i./ha,44.6%
same,Control effect (%) of B applied alone in corresponding dose,Echinochloa oryzoides; B 150 g a.i./ha,75.2%
